The subject of data set [1] is Aβ1-42-reactive T-cell lines. Description: Epitope mapping / proliferation of Aβ1-42-reactive T-cell lines. Format: cell-based, human. To be noted: for Distribution of Aβ T-cell epitopes: Number of T-cell lines / Distribution of Aβ T-cell epitopes: percent: lines from 24 subjects, fine mapping with 15 amino acid overlapping peptides. As to the method:
Epitope specificity of these 3 T-cell lines using 5 overlapping peptides within Aβ15-42 was further investigated.
(§1) T-cell lines were then supplemented with 10 μg/ml IL-2 after 48 hours and every 2 days thereafter until they were completely resting. T-cell proliferation was measured 72 hours after stimulation following a 12 hr incubation with [^3H]-thymidine. Supernatants were collected 48 hr after T-cell stimulation, and antigen-induced cytokine production was measured by sandwich ELISA. Recommended pairs of antibodies (coating and detecting) for IL-10 (R&D, Minneapolis, Minn.), INF-γ. Endogen, Woburn, Mass.), IL-13 (PharMingen, (San Diego, Calif.), and TGF-β (Promega, Madison, Wis.) were used according to the manufacturer's instructions. Surface and intracellular staining was performed on Aβ-reactive T-cells after stimulation. All antibodies were purchased from BD Biosciences (San Diego, Calif.) and staining was performed according to the manufacturer's instructions.

Data set [2] is described as follows: Fibril formation by quasielastic light-scattering spectroscopy (QLS). The settings on record: phosphate buffer pH 7.4, 3 samples of 10 μg/ml, 5 consecutive days. Format: physicochemical. Here is the method: Fibril formation was measured in 3 equivalent samples of 10 μg/ml Aβ for 5 consecutive days. […] Nested Aβ peptides (Aβ1-15, Aβ4-18, Aβ7-21, Aβ10-24, Aβ13-27, Aβ16-30, Aβ19-33, Aβ22-36, Aβ25-39, Aβ28-42) and alanine/glycine-substituted peptides were synthesized at Biosource International (Hopkinton, Mass.). Aβ peptides used for T-cell assays were dissolved in DMSO (2 mg/ml). Glatiramer acetate (GA) was obtained at the Brigham and Women's Hospital pharmacy.

The subject of data set [3] is Aβ-reactive T-cell lines. Description: Cytokine secretion of Aβ-reactive T-cell lines (sandwich ELISA). It counts as cell-based, human. As to the method:
as §1
(ELISA stands for enzyme-linked immunosorbent assay.)

Data set [4] concerns microglia and resting Aβ-reactive T cells. In words: Co-culture of microglia and resting Aβ-reactive T cells. Format: cell-based, mouse. Here is the method: Microglial cells were sorted and cultured for 12 hours in the presence and absence of IFN-γ. […] Representative areas were then extracted (shown in higher power) and analyzed for the pattern of T-cell migration. In the IFN-γ-treated culture, T cells were attracted to microglial cells, indicated by the sharp turns between the cells (FIG. 11B), and made a significant higher average number of contacts with the microglial cells, as compared with the untreated microglial culture (about 2.1 versus about 0.5, P<0.001) (FIG. 11B). […] These contacts are short time synapse formations characteristics of an early event during T-cell stimulation.
Preparation of cultures of mouse brain microglia: Glial cultures were prepared as described (JI). Briefly, cells were dissociated from the cerebral cortex of 1-day-old C57BL/6 mice after careful removal of meninges tissues, and were cultured in poly-D-lysine (PDL)-coated tissue culture flasks in medium supplemented with Dulbecco's modified Eagle's medium (DMEM), 4 mM L-glutamine, 50 U/ml penicillin, […] streptomycin, 10 mM HEPES, 1 mM sodium pyruvate, 10 mM nonessential amino acids, […] 2-mercaptoethanol (Sigma, St Louis, Mo.), and 10% fetal calf serum (FCS). On day 7, cultures were incubated with 100 pg/ml IFN-γ for 72 hours and on day 10, the entire glial culture was trypsinized and microglia were labeled with PE-conjugated anti-CD11b and sorted using FACS Vantage SE Cell Sorter.
Aβ uptake and T-cell stimulation by microglia: PE-labeled microglial cells were cultured in MatTek culture dishes (Ashland, Mass.) for 24 hours in the DMEM-FCS medium. […] Live images were then taken for 30 min with 20 sec intervals by a Zeiss Laser Scanning Confocal Microscope and analyzed by 3D analysis software (Zeiss, Thornwood, N.Y.). For the microglia-T-cell coculture experiments, Aβ-reactive T cells were generated as described and labeled with Alexa Flour 488-conjugated anti-mouse CD4. Resting cells were added to the microglia culture together with Aβ1-42.

In data set [5] the test system is Primary cultures of microglia. In words: Aβ uptake and motility of microglia treated with IFN-γ (live confocal imaging). It counts as cell-based, mouse. Here is the method: The meningoencephailis we observed was completely dependent on expression of IFN-g in the CNS. […] We therefore established an in vitro system to examine early events associated with microglia activation by IFN-γ and their contribution to uptake of Aβ and specific T-cell activation. Primary cultures of microglia were prepared and live images were obtained by a confocal microscope, as described in Methods. FITC-labeled Aβ was added to the culture for 30 min, cultures were carefully washed, and live images were taken for 30 minutes. […] (FIG. 10B).
Preparation of cultures of mouse brain microglia: Glial cultures were prepared as described (JI). […]
Aβ uptake and T-cell stimulation by microglia: PE-labeled microglial cells were cultured in MatTek culture dishes (Ashland, Mass.) for 24 hours in the DMEM-FCS medium. […] Live images were then taken for 30 min with 20 sec intervals by a Zeiss Laser Scanning Confocal Microscope and analyzed by 3D analysis software (Zeiss, Thornwood, N.Y.). […]

Data set [6] has as its system Aβ-reactive T cells. Description: FACS of activation marker and cytokine expression in an Aβ-reactive T-cell line. Format: cell-based, human. To be noted: 30 hr after stimulation with irradiated autologous PBMCs. Here is the method: To further determine the phenotype of Aβ-reactive T cells, a representative T-cell line also was tested by FACS for Th1 and Th2 cytokine expression. […] We further asked whether the cytokine profiles represented primarily Th2 lineages by testing for the expression of INF-γ and IL-13/IL-5 in the same cells.
as §1

Data set [7] has as its system peripheral blood mononuclear cells. Description: Primary stimulation of PBMCs with αCD3/CD28 or glatiramer acetate ([3H]thymidine proliferation). It counts as cell-based, human. As to the method: In this study, αCD3/CD28 stimulation was measured as follows. PBMCs were cultured with 1 μg/ml soluble αCD3 plus αCD28 or cell culture medium alone, pulsed with [^3H] thymidine on day 2 after stimulation and incorporation measured 12 hr later. For glatiramer acetate stimulation, cells were cultured with 50 μg/ml GA or cell culture medium alone, and pulsed with [^3H] thymidine on day 6. Mean cpm=average cpm for each group. The average cpm for cells with culture medium alone was 825. […] Proliferative responses were calculated from these subjects. Two-tailed p values were calculated for the mean cpm using the alternate Welch test, assuming Gaussion populations with unequal SD's.
Primary stimulation with αCD3/CD28 or GA: For […] stimulation frozen PBMCs (2×10^5 cells/well) were cultured in 5 wells (U-bottom 96-well plate) in the presence of 1 μg/ml soluble αCD3 plus αCD28 and in additional 5 wells with cell culture medium alone, pulsed with […] thymidine on day 2 after stimulation and incorporation measured 12 hr later. For glatiramer acetate stimulation, fresh PBMCs were cultured in 5 wells with 50 μg/ml GA or cell culture medium alone, pulsed with [^3H] thymidine on day 6, and incorporation measured 12 hr later.

In data set [8] the test system is APP/IFN-g Tg mice.
Procedure: To determine whether carrying the IA^s allele is sufficient to induce T-cell activation and migration to the CNS of APP-tg mice, B6SJLF1 APP-tg mice line J20, see Methods) were immunized with Aβ10-24 in CFA followed by intravenous injection of PT at the time of immunization and 48 hr later.
APP/IFN-γ tg mice that were immunized with Aβb 10-24 were analyzed by immunohistochemistry 20 and 30 days after immunization for immune infiltrates associated with Aβ plaques.
Immunization and measurement of immune responses: Mice were immunized by footpad injection if sacrificed on day 12, for longer periods mice were injected in the flanks. Each mouse received 100 ml of antigen (1 mg/ml), emulsified in an equal volume of complete Freund's adjuvant (CFA). Mice were also injected intravenously with 150 ng pertussis toxin at the time of immunization and 48 hours later.
Immunohistochemistry and imaging: Cryosections (6 μm) from brains of APP-Tg+ mice were placed onto glass slides and fixed with ice-cold methanol for 2 min followed by 2% PFA at RT for 4 min. Sections were washed once with distilled water for 5 min and twice with PBS containing 0.05% Tween-20. Sections were then incubated for 1 hour at RT with blocking buffer (PBS containing 3% normal goat serum and 2% bovine serum albumin).
For data set [9], the system named is popliteal draining lymph nodes (PLN) T cells. In words: Lymph node T-cell proliferation after immunization of mice with Aβ in CFA. Format: cell-based, mouse. The settings on record: for T-cell proliferation with overlapping peptides: immunized with human Aβ1-42.
Data set [10] relates to Aβ16-30-specific T cells. Description: Proliferation of Aβ16-30-specific T cells with alanine/glycine-substituted peptides. Format: cell-based, human. The settings on record: 72 hr.
From the text: Because the T-cell epitopes were most frequently localized to Aβ16-30, we further mapped this epitope for each of its constituent amino acids by using alanine-substituted peptides in the T-cell proliferation assay (the naturally occurring alanines at positions 21 and 30 were changed to glycines). […] Substitution of lysine-16, alanine-21, serine-26 or aspargine-27 increased T-cell proliferation by more than 2-fold (Table 4).
In this experiment, T cells specific to Aβ16-30 were stimulated in the presence of alanine/glycine substituted peptides and autologous PBMCs. T-cell proliferation was measured by [^3H]-thymidine incorporation 72 hr after stimulation. Numbers represent average cpm of each antigen concentration tested (average cpm in the absence of antigen was 911).
as §1

Setting [11] is: 48 hr after stimulation, T-cell lines 1, 2, 3.
Setting [12] is: αCD3/CD28 1 μg/ml pulsed day 2, GA 50 μg/ml pulsed day 6.
Where [13] appears, read: SJL-derived lymphocyte cultures.
Setting [14] is: App Tg, C57BL6, 12 days after imm.

The values below come from patent US20050123553A1, “Amyloid beta-peptide and methods of use” (priority 2003, published 2005).

Ends that are not written are not given here.

Take “Aβ1-40: Aβ1-40 synthetic peptide, one of the two major forms of Aβ protein [reference compound]”: the “reactivity of Aβ28-42-reactive T-cell lines” value in [1] is “unreactive”. For the same substance, the “fibril formation / aggregation” value in data set [2] is reported as “Slight aggregation was detected in only one sample”.

Consider “Aβ1-28: overlapping N-terminal fragment of Aβ1-42, residues 1-28”, for which, in data set [1], the “Distribution of Aβ T-cell epitopes: Number of T-cell lines” value (shortened to “Distribution … of T-cell lines”) turned out to be 2 and the “Distribution of Aβ T-cell epitopes: percent” value (shortened to “Distribution … percent”) amounted to 8%. In addition, in data set [3] (setting [11]), the IFN-γ secretion result was “not IFN-γ” and the IL-13 secretion entry is on record as “high levels”.

Turning to “IFN-γ: cytokine used to treat microglial cultures (100 pg/ml)”, in [4] (IFN-γ-treated culture), the “average number of contacts of T cells with the microglial cells” value is listed as “about 2.1”. The “motility of the T cells” value in [4] (IFN-γ-treated versus untreated culture) is “significant increase”. The “density of T cells on microglia” value in data set [4] (IFN-γ-treated versus untreated microglia, Aβ1-42 as antigen) is recorded as “higher density”. For the same substance, the “Aβ uptake by microglia” value in [5] (pretreated versus untreated cultures, FITC-labeled Aβ 30 min) is listed as “significantly enhanced”. The “filipodia formation (microglia motility)” value in data set [5] (treated versus untreated cultures) was “longer and occurred with higher frequency”.

For the substance “Aβ15-42: overlapping C-terminal fragment of Aβ1-42, residues 15-42 (QKLVFFAEDVGSNKGAIIGLMVGGVVIA; Amyloid-beta protein 42; UniProt P05067 686-713, looked up, fragment)”, the “expression of the CD69 activation marker on CD4+ cells” value in [6] was “increased expression”. Besides, in data set [1], the “Distribution … of T-cell lines” value is 22 and the “Distribution … percent” value amounted to 92%. In data set [3], the Th2 response result is recorded as “elicit a Th2 response”.

Turning to Glatiramer acetate, in data set [7] (all groups tested, 50 μg/ml GA), the “subjects that showed proliferation” value was 90%. Also, in [7] (setting [12]), the “Proliferation, Mean cpm ± SEM, Adult” value is 35,342 ± 7,893 cpm; the “Proliferation, Mean cpm ± SEM, Alzheimer's disease subjects” value is listed as 19,403 ± 3,078 cpm; the “Proliferation, Mean cpm ± SEM, Elderly” value is 27,311 ± 4,781 cpm.

On to YEVHHQKLVFFAEDV [Aβ10-24], for which, in [8] (mouse, in vivo), the “Immune infiltrates in the spinal cord” value was “not observed” and the meningoencephalitis result is on record as “strong meningoencephalitis”.

For the substance “Aβ7-21: nested Aβ peptide, residues 7-21 (DSGYEVHHQKLVFFA; Amyloid-beta protein 42; UniProt P05067 678-692, looked up, fragment)”, in [1], the “Distribution … of T-cell lines” value stood at 1 and the “Distribution … percent” value amounted to 4%. Besides, the T-cell proliferation result in data set [9] (NOD mice immunized with Aβ1-42) is on record as “slight T-cell proliferation”. Moreover, the “T-cell proliferation across the peptide series Aβ7-21 to Aβ10-24” value in data set [9] (SJL mice immunized with rodent Aβ1-42) is “gradual increase”. Moreover, the “T-cell proliferation with overlapping peptides” value in data set [9] (setting [13]) was “induced T-cell proliferation”.

In the case of “Aβ13-27: nested Aβ peptide, residues 13-27 (HHQKLVFFAEDVGSN; Amyloid-beta protein 42; UniProt P05067 684-698, looked up, fragment)”, in [9] (setting [13]), the “T-cell proliferation with overlapping peptides” value is recorded as “induced T-cell proliferation”.

Turning to “Aβ16-30: nested Aβ peptide, residues 16-30 (KLVFFAEDVGSNKGA; Amyloid-beta protein 42; UniProt P05067 687-701, looked up, fragment)”, in [8] (setting [14]), the “CD4 (cells/mm^2 ± SEM)” value was 0 cells/mm^2 and the “CD11b (cells/mm^2 ± SEM)” value came to 0 cells/mm^2. For the same substance, in [1], the “frequency of positive T-cell lines induced” value was “highest frequency”, the “Distribution … of T-cell lines” value stood at 10 and the “Distribution … percent” value is 42%. In data set [9] (10-24 in SJL, 16-30 in C57BL6 mice), the “response compared with that induced by Aβ1-42” value is reported as “equivalent”. Also, the “T-cell proliferation with overlapping peptides” value in data set [9] (C57BL6 mice) is “induced proliferation”. Moreover, the “recall proliferation of LN-derived T cells in vitro” value in [9] (SJL mice immunized with human Aβ10-24) is given as “not”. The Th2 response result in [3] is on record as “elicit a Th2 response”. Moreover, the “T-cell proliferation, average cpm” value in data set [10] (Peptide 0.1 μg/ml) amounted to 1648 cpm. Also, in data set [10] (Peptide 1 μg/ml), the “T-cell proliferation, average cpm” value was determined as 6780 cpm. Further, the “T-cell proliferation, average cpm” value in data set [10] (Peptide 10 μg/ml) turned out to be 17339 cpm.
